The test system of experiment [1] is pERK in H727 cells. The experiment is described as follows: Inhibition of KRas phosphorylation of ERK (Cisbio HTRF pERK assay). The settings on record: Homo sapiens, NCI-H727, read-out: Inhibition (HTRF IC50) of KRas-mediated Phosphorylation of ERK, H727.
Experiment [2] concerns pERK in HCT116 cells. Described as above. The note with it: Homo sapiens, HCT-116, read-out: Inhibition (HTRF IC50) of KRas-mediated Phosphorylation of ERK, HCT116.
Experiment [3] relates to pERK in MKN1 cells. Described as above. The note with it: Homo sapiens, MKN-1, 3 h, read-out: Inhibition (HTRF IC50) of KRas-mediated Phosphorylation of ERK, MKN1. (In general: In TR-FRET formats the signal depends on donor and acceptor labels being close together.)
Experiment [4] concerns the target KRas G12D (Homo sapiens, UniProt P01116, G12D). The experiment can be described thus: biochemical.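 Further: TR-FRET displacement binding assay on KRas, read after a one-hour incubation at room temperature, IC50 fitted from percent-of-control values.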
Description: (§1) The ability of a compound to bind to KRas was measured using a TR-FRET displacement assay. […] After a 60-minute incubation at room temperature, the reaction was measured using a BMG LABTECH CLARIO star Plus via TR-FRET. […] The POC values were fit to a 4-parameter IC50 equation and the IC50 value reported.
The target of experiment [5] is KRas G12V (Homo sapiens, UniProt P01116, G12V). The experiment is described as follows: biochemical.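 Further: KRas binding measured by TR-FRET displacement at room temperature, IC50 fitted from percent of control values.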
Sequence of KRas G12V (P01116 1-169 isoform P01116-2 G12V): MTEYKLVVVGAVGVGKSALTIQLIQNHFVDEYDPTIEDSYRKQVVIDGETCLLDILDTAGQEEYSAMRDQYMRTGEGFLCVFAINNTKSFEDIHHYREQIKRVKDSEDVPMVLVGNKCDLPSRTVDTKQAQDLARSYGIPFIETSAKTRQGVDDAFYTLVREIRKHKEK
Description: as §1
In experiment [6] the target is KRas G12R (Homo sapiens, UniProt P01116, G12R). The experiment is described as follows: biochemical.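 Further: TR-FRET displacement assay of compound binding to KRas, read after one hour at room temperature, potency from a four-parameter fit of percent-of-control values.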
Sequence of KRas G12R (P01116 1-169 isoform P01116-2 G12R): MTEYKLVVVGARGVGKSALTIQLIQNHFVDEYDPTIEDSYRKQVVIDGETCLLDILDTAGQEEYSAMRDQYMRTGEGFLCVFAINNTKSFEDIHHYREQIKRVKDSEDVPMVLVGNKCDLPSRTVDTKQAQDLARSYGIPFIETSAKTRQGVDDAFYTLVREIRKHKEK
Description: as §1
The test system of experiment [7] is pERK in ASPC1 cells. The experiment is described as follows: Inhibition of KRas phosphorylation of ERK (Cisbio HTRF pERK assay). The settings on record: Homo sapiens, ASPC1, read-out: Inhibition (HTRF IC50) of KRas-mediated Phosphorylation of ERK, AsPC-1.
Experiment [8] concerns pERK in PSN1 cells. The experiment is described as above. The settings on record: Homo sapiens, PSN1, 3 h, read-out: Inhibition (HTRF IC50) of KRas-mediated Phosphorylation of ERK, PSN1.

Sequence of KRas G12D (P01116 1-169 isoform P01116-2 G12D): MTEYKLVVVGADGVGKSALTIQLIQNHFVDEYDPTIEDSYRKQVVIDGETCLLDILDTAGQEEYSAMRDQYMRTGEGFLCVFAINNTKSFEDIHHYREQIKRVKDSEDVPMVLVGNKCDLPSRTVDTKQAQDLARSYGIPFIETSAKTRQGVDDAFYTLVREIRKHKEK

In the case of `CCc1c(F)ccc2cc(O)cc(-c3ncc4c(N5CCCn6nc(C(=O)N(C)C)cc6C5)nc(OCC5(CN(C)C)CC5)nc4c3F)c12` [Example 333, 5-(2-((1-((dimethylamino)methyl)cyclopropyl)methoxy)-7-(8-ethyl-7-fluoro-3-hydroxynaphthalen-1-yl)-8-fluoropyrido[4,3-d]pyrimidin-4-yl)-N,N-dimethyl-5,6,7,8-tetrahydro-4H-pyrazolo[1,5-a][1,4]diazepine-2-carboxamide], the half-inhibitory concentration (IC50) in experiment [1] is 2110 nM; in experiment [2], 9190 nM; in experiment [3] it was 425 nM; in experiment [4] it was no more than 2 nM; in experiment [5], no more than 2 nM; in experiment [6], 5 nM. Besides, the IC50 in experiment [7] was 603 nM; in experiment [8], no less than 10 µM.

Consider `CCc1c(F)ccc2cc(O)cc(-c3ncc4c(N5CCOCC6(C5)NC(=O)NC6=O)nc(OC[C@@]56CCCN5C[C@H](F)C6)nc4c3F)c12` (stereo partly drawn) [Example 337, 10-(7-(8-ethyl-7-fluoro-3-hydroxynaphthalen-1-yl)-8-fluoro-2-(((2R,7aS)-2-fluorohexahydro-1H-pyrrolizin-7a-yl)methoxy)pyrido[4,3-d]pyrimidin-4-yl)-7-oxa-1,3,10-triazaspiro[4.6]undecane-2,4-dione], for which the IC50 in experiment [1] is 395 nM; in experiment [2], 438 nM; in experiment [3] it was 49 nM; in experiment [4], 3 nM; in experiment [5] it was 3 nM; in experiment [6] it was 5 nM. For the same molecule, the values for the IC50 in experiment [7] and in experiment [8] were 514 nM and 1.84 µM, respectively.

Turning to `CCc1c(F)ccc2cc(O)cc(-c3ncc4c(N5CCCCC6(C5)NC(=O)NC6=O)nc(OC[C@@]56CCCN5C[C@H](F)C6)nc4c3F)c12` (stereo partly drawn) [Example 338, 7-(7-(8-ethyl-7-fluoro-3-hydroxynaphthalen-1-yl)-8-fluoro-2-(((2R,7aS)-2-fluorotetrahydro-1H-pyrrolizin-7a(5H)-yl)methoxy)pyrido[4,3-d]pyrimidin-4-yl)-1,3,7-triazaspiro[4.6]undecane-2,4-dione], the IC50 is 377 nM in experiment [1]; 487 nM in experiment [2]; 24 nM in experiment [3]; no more than 2 nM in experiment [4]; 3 nM in experiment [5]; 4 nM in experiment [6]. Besides, the half-inhibitory concentration (IC50) in experiment [7] was 695 nM; in experiment [8] it was 2.88 µM.

For `CCc1c(F)ccc2cc(O)cc(-c3ncc4c(N5CCCn6nc(CO)cc6C5)nc(OC[C@@]56CCCN5C[C@H](F)C6)nc4c3F)c12` [Example 341, 5-ethyl-6-fluoro-4-(8-fluoro-2-(((2R,7aS)-2-fluorohexahydro-1H-pyrrolizin-7a-yl)methoxy)-4-(2-(hydroxymethyl)-7,8-dihydro-4H-pyrazolo[1,5-a][1,4]diazepin-5(6H)-yl)pyrido[4,3-d]pyrimidin-7-yl)naphthalen-2-ol], the IC50 was 1040 nM in experiment [1]; 1320 nM in experiment [2]; 86 nM in experiment [3]; no more than 2 nM in experiment [4]; 3 nM in experiment [5]; no more than 2 nM in experiment [6]. Moreover, the IC50 in experiment [7] was 472 nM; in experiment [8], no less than 10 µM.

For `CCc1c(F)ccc2cc(O)cc(-c3ncc4c(N5CCCC(N6CCCS6(=O)=O)C5)nc(OC[C@@]56CCCN5C[C@H](F)C6)nc4c3F)c12` (stereo partly drawn) [Example 348, 2-(1-(7-(8-ethyl-7-fluoro-3-hydroxynaphthalen-1-yl)-8-fluoro-2-(((2R,7aS)-2-fluorotetrahydro-1H-pyrrolizin-7a(5H)-yl)methoxy)pyrido[4,3-d]pyrimidin-4-yl)piperidin-3-yl)isothiazolidine 1,1-dioxide], the IC50 was 273 nM in experiment [1]; 245 nM in experiment [2]; 7 nM in experiment [3]; 6 nM in experiment [4]; 3 nM in experiment [5]; no more than 2 nM in experiment [6]. Further, the figures for the IC50 in experiment [7] and in experiment [8] were 275 nM and no less than 10 µM, respectively.

On to `CCc1c(F)ccc2cc(O)cc(-c3ncc4c(NC5CCS(=O)(=O)C5)nc(OC[C@@]56CCCN5C[C@H](F)C6)nc4c3F)c12` (stereo partly drawn) [Example 349, 3-((7-(8-ethyl-7-fluoro-3-hydroxynaphthalen-1-yl)-8-fluoro-2-(((2R,7aS)-2-fluorotetrahydro-1H-pyrrolizin-7a(5H)-yl)methoxy)pyrido[4,3-d]pyrimidin-4-yl)amino)tetrahydrothiophene 1,1-dioxide], for which the IC50 in experiment [1] was found to be 1860 nM; in experiment [2], 2250 nM; in experiment [3] it was 149 nM; in experiment [4], 20 nM; in experiment [5], 4 nM; in experiment [6] it was 7 nM. In addition, the half-inhibitory concentration (IC50) in experiment [7] is 475 nM; in experiment [8], no less than 10 µM.

Take `CCc1c(F)ccc2cc(O)cc(-c3ncc4c(N5CC6CCC(C6)C5)nc(OC[C@@]56CCCN5C[C@H](F)C6)nc4c3F)c12` [Example 350, 4-(4-(3-azabicyclo[3.2.I]octan-3-yl)-8-fluoro-2-(((2R,7aS)-2-fluorohexahydro-1H-pyrrolizin-7a-yl)methoxy)pyrido[4,3-d]pyrimidin-7-yl)-5-ethyl-6-fluoronaphthalen-2-ol]: the IC50 in experiment [1] was determined as 334 nM; in experiment [2] it was 797 nM; in experiment [3] it was 209 nM; in experiment [4], 30 nM; in experiment [5] it was 8 nM; in experiment [6], 8 nM. For the same molecule, the values for the concentration for half-maximal inhibition (IC50) in experiment [7] and in experiment [8] were 241 nM and no less than 10 µM, respectively.

On to `CCc1c(F)ccc2cc(O)cc(-c3ncc4c(N5CCCC6(C5)NC(=O)NC6=O)nc(OCC5(CN(C)C)CC5)nc4c3F)c12` (stereo not shown) [Example 359, 7-(2-((1-((dimethylamino)methyl)cyclopropyl)methoxy)-7-(8-ethyl-7-fluoro-3-hydroxynaphthalen-1-yl)-8-fluoropyrido[4,3-d]pyrimidin-4-yl)-1,3,7-triazaspiro[4.5]decane-2,4-dione], for which the IC50 is 782 nM in experiment [1]; 576 nM in experiment [2]; 60 nM in experiment [3]; no more than 2 nM in experiment [4]; no more than 2 nM in experiment [5]; no more than 2 nM in experiment [6]. The IC50 in experiment [7] is 345 nM; in experiment [8], 4.09 µM.

`CCc1c(F)ccc2cc(O)cc(-c3ncc4c(NCC5CC(=O)NC5=O)nc(OC[C@@]56CCCN5C[C@H](F)C6)nc4c3F)c12` (stereo partly drawn) [Example 367, 3-(((7-(8-ethyl-7-fluoro-3-hydroxynaphthalen-1-yl)-8-fluoro-2-(((2R,7aS)-2-fluorohexahydro-1H-pyrrolizin-7a-yl)methoxy)pyrido[4,3-d]pyrimidin-4-yl)amino)methyl)pyrrolidine-2,5-dione]: the half-maximal inhibitory concentration (IC50) in experiment [1] was 244 nM; in experiment [2], 375 nM; in experiment [3], 58 nM; in experiment [4], no more than 2 nM; in experiment [5], no more than 2 nM; in experiment [6], no more than 2 nM. Further, the IC50 is 505 nM in experiment [7] and no less than 10 µM in experiment [8].

As to `C#Cc1c(F)ccc2cc(O)cc(-c3ncc4c(N5CCCC6(CNC6=O)C5)nc(OC[C@@]56CCCN5C[C@H](F)C6)nc4c3F)c12` (stereo partly drawn) [Example 392, 6-(7-(8-ethynyl-7-fluoro-3-hydroxynaphthalen-1-yl)-8-fluoro-2-(((2R,7aS)-2-fluorohexahydro-1H-pyrrolizin-7a-yl)methoxy)pyrido[4,3-d]pyrimidin-4-yl)-2,6-diazaspiro[3.5]nonan-1-one], the IC50 in experiment [1] is 1370 nM; in experiment [2] it was 2250 nM; in experiment [3], 336 nM; in experiment [4], no more than 2 nM; in experiment [5], 3 nM; in experiment [6] it was 3 nM. Further, the concentration for half-maximal inhibition (IC50) turned out to be 1180 nM in experiment [7] and 6.02 µM in experiment [8].

Consider `C#Cc1c(F)ccc2cc(O)cc(-c3ncc4c(N5CCCC6(C5)NC(=O)NC6=O)nc(OC[C@@]56CCCN5C[C@H](F)C6)nc4c3F)c12` (stereo partly drawn) [Example 397, 7-(7-(8-ethynyl-7-fluoro-3-hydroxynaphthalen-1-yl)-8-fluoro-2-(((2R,7aS)-2-fluorohexahydro-1H-pyrrolizin-7a-yl)methoxy)pyrido[4,3-d]pyrimidin-4-yl)-1,3,7-triazaspiro[4.5]decane-2,4-dione], for which the IC50 in experiment [1] was 1000 nM; in experiment [2], 1460 nM; in experiment [4], no more than 2 nM; in experiment [5], no more than 2 nM; in experiment [6], no more than 2 nM; in experiment [7], 903 nM.

`OCC1COCCN(c2nc(OC[C@@]34CCCN3C[C@H](F)C4)nc3c(F)c(-c4cc(O)cc5ccc(F)c(Br)c45)ncc23)C1` (stereo partly drawn) [Example 401, 5-bromo-6-fluoro-4-(8-fluoro-2-(((2R,7aS)-2-fluorohexahydro-1H-pyrrolizin-7a-yl)methoxy)-4-(6-(hydroxymethyl)-1,4-oxazepan-4-yl)pyrido[4,3-d]pyrimidin-7-yl)naphthalen-2-ol]: the IC50 in experiment [1] was 253 nM; in experiment [2] it was 1150 nM; in experiment [3], 82 nM; in experiment [4], no more than 2 nM; in experiment [5], no more than 2 nM; in experiment [6] it was no more than 2 nM. The results for the half-inhibitory concentration (IC50) in experiment [7] and in experiment [8] were 162 nM and 9.96 µM, respectively.

The IC50 is the concentration that inhibits the measured activity by half.

The values are drawn from patent US12398154B2, “Azaquinazoline pan-KRas inhibitors” (Mirati Therapeutics, Inc., priority 2020, dated 2025).
